According to patent publication US10881656B2, “HIF inhibitors and use thereof” (The General Hospital Corporation, priority 2008, dated 2021):

Assays:
[1] = system: HUVEC; assay: HUVEC proliferation assay; assay type: cell-based, human; details: conditioned supernatant from compound-treated 786-O cells
Protocol: HUVEC cells were plated in a 96 well plate in HUVEC minimal medium (Chembrex, EBM-2). 24 hours later, medium was replaced with a 1:4 mix of tissue culture medium that had been conditioned from compound or DMSO-only treated 786-O cells and HUVEC minimal medium. HUVEC proliferation was quantified by a colorimetric proliferation assay (WST-1, Roche, Germany).
Conditioned tissue culture medium from compound-treated 786-O cells was tested for its ability to induce human umbilical vein endothelial cell (HUVEC) proliferation.

[2] = target: T1, IRP1 binding to HIF-2a IRE (Homo sapiens, UniProt P21399); assay: Electrophoretic mobility shift assay, HIF-2a IRE probe; details: for binding of IRP1 to HIF-2a IRE probe: lysates of treated 786-O cells, EMSA
T1 sequence (P21399 1-889): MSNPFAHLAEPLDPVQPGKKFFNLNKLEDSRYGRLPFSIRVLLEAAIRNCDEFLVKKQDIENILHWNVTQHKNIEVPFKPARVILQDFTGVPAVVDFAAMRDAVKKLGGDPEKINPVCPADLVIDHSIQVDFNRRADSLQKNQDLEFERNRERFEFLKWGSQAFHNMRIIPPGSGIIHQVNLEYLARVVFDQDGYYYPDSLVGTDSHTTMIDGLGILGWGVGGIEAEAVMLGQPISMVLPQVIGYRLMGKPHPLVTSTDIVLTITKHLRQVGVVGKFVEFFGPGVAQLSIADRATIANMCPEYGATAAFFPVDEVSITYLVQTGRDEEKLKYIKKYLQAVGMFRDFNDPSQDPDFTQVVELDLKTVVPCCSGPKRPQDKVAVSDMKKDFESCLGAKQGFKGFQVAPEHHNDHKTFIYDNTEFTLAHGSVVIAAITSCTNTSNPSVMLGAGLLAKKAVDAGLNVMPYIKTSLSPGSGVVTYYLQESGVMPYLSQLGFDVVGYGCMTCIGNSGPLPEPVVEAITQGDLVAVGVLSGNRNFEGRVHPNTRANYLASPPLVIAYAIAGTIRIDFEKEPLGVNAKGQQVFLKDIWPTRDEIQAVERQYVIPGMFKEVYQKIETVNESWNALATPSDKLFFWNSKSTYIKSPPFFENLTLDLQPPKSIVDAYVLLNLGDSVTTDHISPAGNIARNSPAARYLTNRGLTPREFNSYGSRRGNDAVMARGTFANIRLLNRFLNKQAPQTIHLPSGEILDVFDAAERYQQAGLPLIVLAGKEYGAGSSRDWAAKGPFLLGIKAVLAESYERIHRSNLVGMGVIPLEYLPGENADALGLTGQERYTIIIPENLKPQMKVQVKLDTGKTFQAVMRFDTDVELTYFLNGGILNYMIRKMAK
Protocol: EMSAs were performed as described previously (Fillebeen et al., 2003). Briefly, 50 μg lysate from 786-O cells treated with medium only, DMSO, or compounds were incubated with 25,000 cpm wild-type or mutant radiolabeled HIF-2a IRE probe for 20 minutes at room temperature before loading onto non-denaturing acrylamide gels. Supershifts were performed identically, save that 0.2 μg control, IRP1 or IRP2 antibodies were also added. Total protein content was estimated by Bradford Assay (BioRad, 500-0006), and even loading for all experiments was confirmed by Western blot for B-Actin.
The inventors next tested the effect of hypoxia on the binding of IRP1 to the HIF-2a wild-type IRE. […] This is due to decreased mRNA binding, as western blots confirm that neither compound application nor hypoxia affects IRP1 protein expression. The involvement of IRP1 was further confirmed with super-shifting experiments with IRP1 antibody (FIG. 7C). No supershifted bands were observed using IRP2 antibody.
Inventors discovered that compound 76 increased the residual amount of IRP1 bound to the HIF-2a IRE in hypoxia, although not to the same extent as that observed in normoxic cells. […] Lastly, to further investigate the involvement of IRP2 in HIF-2a IRE, the inventors compared side by side IRP2 binding to HIF-2a and Ferritin-L IRE in 786-O cells, in conditions of normoxia or hypoxia and after treatment with compound 76 or DFO (FIG. 7E). While IRP2 binding was clearly detected on Ferritin IRE, the inventors were not able to detect measurable IRP2 binding on HIF-2a IRE.
To examine this latter possibility the inventors performed an electophoretic mobility shift assay (EMSA) using a radiolabeled wild type or mutant IRE probe to determine if IRP1 binding is increased (FIG. 18A). […] This shifted band can be supershifted with IRP1 but not IRP2 antibodies (data not shown). To further examine the ability of PGJ2 to enhance IRP1 activity under conditions of normoxia and hypoxia the inventors tested its effect at various concentrations of ambient oxygen, corresponding to physiologic or extreme conditions of tissue oxygenation.

[3] = system: putative IRE in HIF-1a 5′-UTR; assay: Luciferase reporter with putative HIF-1a IRE; assay type: cell-based, human; details: 786-O derived reporter lines, normoxia or 1% oxygen
Protocol: The consensus sequence of the loop and the mandatory 5′ cytosine bulge are highlighted with light blue circles. […] Duplicate plates of 786-O derived lines expressing the putative wild-type or mutant HIF-1a IRE were cultured in the presence of compound as described for FIG. 1, with the exception that one set was placed at 1% oxygen for 24 hours following the first day's medium-change. Cells were treated with M, medium only; D, DMSO; or compounds, as indicated at the following concentrations: 40, 40 μM; 41, 30 μM; 76, 10 μM; 77, 5 μM. […] CWR22R or Hep3B cells were treated with compound and subjected to hypoxia as described above. B-Actin is shown for loading control. Cells were treated with M, medium only; D, DMSO; or compounds, as indicated at the following concentrations: 40, 40 μM; 41, 30 μM; 76, 20 μM; 77, 7.5 μM.
The lack of a functional IRE in HIF-1a represents a clear dichotomy between the two HIF isoforms that allows their translation to be controlled by a different regulatory system.

Row | SMILES | angiogenic activity of renal carcinoma cell supernatant (HUVEC proliferation) [1] | binding of IRP1 to HIF-2a IRE probe [2] | effect on putative IRE in HIF-1a 5′-UTR [3] | binding of IRP1 to wild-type HIF-2a probe in hypoxia ([2]; 786-O cells, 24 hours hypoxia)
1 | C/C(=C\c1ccccc1)C(=O)CCN(C)C.Cl [Compound 40, 5-(dimethylamino)-2-methyl-1-phenyl-1-penten-3-one hydrochloride] | decrease the angiogenic activity of renal carcinoma cell supernatant | enhance binding of IRP1 to the HIF-2a IRE | do not affect putative IRE in HIF-1a 5′-UTR | –
2 | COc1ccc(O)c(/C=C/C(=O)c2c(O)cc(C)oc2=O)c1 [Compound 41, 4-hydroxy-3-[3-(2-hydroxy-5-meoxyphenyl)acryloyl]-6-methyl-2H-pyran-2-one] | decrease the angiogenic activity of renal carcinoma cell supernatant | enhance binding of IRP1 to the HIF-2a IRE | do not affect putative IRE in HIF-1a 5′-UTR | –
3 | COC(=O)c1sccc1N/N=C(/C#N)S(C)(=O)=O [Compound 76, methyl 3-{2-[cyano(methylsulfonyl)methylene] hydrazino}thiophene-2-carboxylate] | decrease the angiogenic activity of renal carcinoma cell supernatant | enhance binding of IRP1 to the HIF-2a IRE | do not affect putative IRE in HIF-1a 5′-UTR | enhances binding of IRP1 to wild-type HIF-2a probe in hypoxia
4 | CC1(C)CC(=O)C=C(Sc2ccc(C#N)cc2[N+](=O)[O-])S1 [Compound 77, 4-[(2,2-dimethyl-4-oxo-3,4-dihydro-2H-thiin-6-yl)thio]-3-nitrobenzonitrile] | decrease the angiogenic activity of renal carcinoma cell supernatant | enhance binding of IRP1 to the HIF-2a IRE | do not affect putative IRE in HIF-1a 5′-UTR | –
5 | CCCCC/C=C/C=C1/C(=O)C=C[C@@H]1C/C=C\CCCC(=O)O [PGJ2, 15-deoxy-Δ^12,14-prostaglandin J2] | – | increased the specific IRE binding activity of cell lysates under conditions of both normoxia and hypoxia | – | –
